Data set [1] is described as follows: Determination of brain to plasma ratio in rat. It is filed as in vivo. To be noted: female Sprague Dawley rats, read-out: Brain/Plasma Ratio of compound in Rat. As for the experimental part:
Brain to plasma ratios are estimated in female Sprague Dawley rats. The compound is dissolved in water or another appropriate vehicle. For determination of brain to plasma ratio the compound is administrated as a subcutaneous, or an intravenous bolus injection, or an intravenous infusion, or an oral administration. At a predetermined time point after the administration a blood sample is taken with cardiac puncture. The rat is terminated by cutting the heart open, and the brain is immediately retained. The blood samples are collected in heparinized tubes and centrifuged within 30 minutes, in order to separate the plasma from the blood cells. The plasma is transferred to 96-well plates and stored at −20° C. until analysis. The brains are divided in half, and each half is placed in a pre-tarred tube and stored at −20° C. until analysis. Prior to the analysis, the brain samples are thawed and 3 mL/g brain tissue of distilled water is added to the tubes. The brain samples are sonicated in an ice bath until the samples are homogenized. Both brain and plasma samples are precipitated with acetonitrile. After centrifugation, the supernatant is diluted with 0.2% formic acid. Analysis is performed on a short reversed-phase HPLC column with rapid gradient elution and MSMS detection using a triple quadrupole instrument with electrospray ionisation and Selected Reaction Monitoring (SRM) acquisition. Liquid-liquid extraction may be used as an alternative sample clean-up. The samples are extracted, by shaking, to an organic solvent after addition of a suitable buffer. An aliquot of the organic layer is transferred to a new vial and evaporated to dryness under a stream of nitrogen. After reconstitution of the residuals the samples are ready for injection onto the HPLC column.

Data set [2] concerns the target T1, human mGluR5d (Homo sapiens, UniProt P41594).
T1 construct: expressed in transfected cells
The data set can be described thus: FLIPR assay, functional assessment of mGluR5 antagonism (intracellular calcium mobilization). To be noted: cells expressing human mGluR5d; read-out: FLIPR hmGluR5d. Format: cell-based. The text has this:
Biological Evaluation Functional Assessment of mGluR5 Antagonism in Cell Lines Expressing mGluR5D
The properties of the compounds of the invention can be analyzed using standard assays for pharmacological activity. Examples of glutamate receptor assays are well known in the art as described in for example Aramori et al., Neuron 8:757 (1992), Tanabe et al., Neuron 8:169 (1992), Miller et al., J. Neuroscience 15: 6103 (1995), Balazs, et al., J. Neurochemistry 69:151 (1997). The methodology described in these publications is incorporated herein by reference. Conveniently, the compounds of the invention can be studied by means of an assay (FLIPR) that measures the mobilization of intracellular calcium, [Ca^2+]i in cells expressing mGluR5 or another assay (IP3) that measures inositol phosphate turnover.
Cells expressing human mGluR5d as described in WO97/05252 are seeded at a density of 100,000 cells per well on collagen coated clear bottom 96-well plates with black sides and experiments are done 24 h following seeding. All assays are done in a buffer containing 127 mM NaCl, 5 mM KCl, 2 mM MgCl2, 0.7 mM NaH2PO4, 2 mM CaCl2, 0.422 mg/mL NaHCO3, 2.4 mg/mL HEPES, 1.8 mg/mL glucose and 1 mg/mL BSA Fraction IV (pH 7.4). Cell cultures in the 96-well plates are loaded for 60 minutes in the above mentioned buffer containing 4 μM of the acetoxymethyl ester form of the fluorescent calcium indicator fluo-3 (Molecular Probes, Eugene, Oreg.) in 0.01% pluronic acid (a proprietary, non-ionic surfactant polyol—CAS Number 9003-11-6). Following the loading period the fluo-3 buffer is removed and replaced with fresh assay buffer. FLIPR experiments are done using a laser setting of 0.800 W and a 0.4 second CCD camera shutter speed with excitation and emission wavelengths of 488 nm and 562 nm, respectively. Each experiment is initiated with 160 μl of buffer present in each well of the cell plate. A 40 μl addition from the antagonist plate was followed by a 50 μL addition from the agonist plate. A 30 minute interval separates the antagonist and agonist additions. The fluorescence signal is sampled 50 times at 1 second intervals followed by 3 samples at 5 second intervals immediately after each of the two additions. Responses are measured as the difference between the peak height of the response to agonist, less the background fluorescence within the sample period. IC50 determinations are made using a linear least squares fitting program.
For orientation: A change in cytosolic calcium serves as a functional read-out for many receptors and channels.

Data set [3] is described as follows: Determination of in vitro stability in human liver microsomes (CLint). It is filed as in vitro ADME. As to conditions: pH 7.4, 0.5 mg/mL protein, 1.0 μmol/L compound, NADPH. As for the experimental part:
Rat liver microsomes are prepared from Sprague-Dawley rats liver samples. Human liver microsomes are either prepared from human liver samples or acquired from BD Gentest. The compounds are incubated at 37° C. at a total microsome protein concentration of 0.5 mg/mL in a 0.1 mol/L potassium phosphate buffer at pH 7.4, in the presence of the cofactor, NADPH (1.0 mmol/L). The initial concentration of compound is 1.0 μmol/L. Samples are taken for analysis at 5 time points, 0, 7, 15, 20 and 30 minutes after the start of the incubation. The enzymatic activity in the collected sample is immediately stopped by adding a 3.5 times volume of acetonitrile. The concentration of compound remaining in each of the collected samples is determined by means of LC-MS. The elimination rate constant (k) of the mGluR5 inhibitor is calculated as the slope of the plot of In[mGluR5 inhibitor] against incubation time (minutes). The elimination rate constant is then used to calculate the half-life (T ½) of the mGluR5 inhibitor, which is subsequently used to calculate the intrinsic clearance (CLint) of the mGluR5 inhibitor in liver microsomes as: CLint.=(ln 2×incubation volume)/(T ½×protein concentration)=μl/min/mg
On the technique in general: Liver microsomes are vesicles of endoplasmic reticulum, rich in cytochrome P450 enzymes.

The target of data set [4] is HERG (Homo sapiens, UniProt Q12809). The data set can be described thus: HERG ionworks. Format: cell-based. A general note: The patch-clamp technique gives a direct electrical read-out from membranes.
HERG, sequence (Q12809 whole entry): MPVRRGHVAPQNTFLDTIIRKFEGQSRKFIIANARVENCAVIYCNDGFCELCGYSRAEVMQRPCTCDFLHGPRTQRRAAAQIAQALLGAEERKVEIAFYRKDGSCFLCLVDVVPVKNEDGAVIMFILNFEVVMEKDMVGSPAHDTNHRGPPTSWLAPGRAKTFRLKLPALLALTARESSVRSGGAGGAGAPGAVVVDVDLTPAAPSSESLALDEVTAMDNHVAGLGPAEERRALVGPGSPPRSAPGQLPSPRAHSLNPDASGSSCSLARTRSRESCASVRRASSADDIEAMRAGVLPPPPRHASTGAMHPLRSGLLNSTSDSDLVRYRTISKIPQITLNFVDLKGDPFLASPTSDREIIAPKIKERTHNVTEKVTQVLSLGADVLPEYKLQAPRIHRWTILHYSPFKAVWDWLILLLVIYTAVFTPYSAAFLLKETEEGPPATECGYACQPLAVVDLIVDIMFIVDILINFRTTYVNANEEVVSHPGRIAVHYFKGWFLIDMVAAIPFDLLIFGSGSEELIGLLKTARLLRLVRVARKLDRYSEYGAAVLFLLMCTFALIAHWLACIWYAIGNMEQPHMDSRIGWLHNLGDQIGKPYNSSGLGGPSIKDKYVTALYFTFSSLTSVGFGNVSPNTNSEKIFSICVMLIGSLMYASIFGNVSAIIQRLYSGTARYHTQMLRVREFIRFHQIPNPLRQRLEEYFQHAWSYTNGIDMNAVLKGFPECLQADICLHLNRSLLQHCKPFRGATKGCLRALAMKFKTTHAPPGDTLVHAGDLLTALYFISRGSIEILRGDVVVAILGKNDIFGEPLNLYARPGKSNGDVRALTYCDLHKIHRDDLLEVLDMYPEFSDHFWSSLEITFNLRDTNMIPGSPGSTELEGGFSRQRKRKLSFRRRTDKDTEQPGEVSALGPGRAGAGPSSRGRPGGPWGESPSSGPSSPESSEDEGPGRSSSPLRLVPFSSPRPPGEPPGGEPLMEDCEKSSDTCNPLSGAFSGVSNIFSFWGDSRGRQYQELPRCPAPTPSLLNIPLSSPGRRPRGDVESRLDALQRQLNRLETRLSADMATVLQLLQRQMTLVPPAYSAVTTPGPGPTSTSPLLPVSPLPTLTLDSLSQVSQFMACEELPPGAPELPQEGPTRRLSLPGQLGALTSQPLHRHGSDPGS

The structures appear in SMILES notation. Some results are limits rather than exact numbers.

T1 sequence (P41594 21-942 isoform P41594-3 limits assumed): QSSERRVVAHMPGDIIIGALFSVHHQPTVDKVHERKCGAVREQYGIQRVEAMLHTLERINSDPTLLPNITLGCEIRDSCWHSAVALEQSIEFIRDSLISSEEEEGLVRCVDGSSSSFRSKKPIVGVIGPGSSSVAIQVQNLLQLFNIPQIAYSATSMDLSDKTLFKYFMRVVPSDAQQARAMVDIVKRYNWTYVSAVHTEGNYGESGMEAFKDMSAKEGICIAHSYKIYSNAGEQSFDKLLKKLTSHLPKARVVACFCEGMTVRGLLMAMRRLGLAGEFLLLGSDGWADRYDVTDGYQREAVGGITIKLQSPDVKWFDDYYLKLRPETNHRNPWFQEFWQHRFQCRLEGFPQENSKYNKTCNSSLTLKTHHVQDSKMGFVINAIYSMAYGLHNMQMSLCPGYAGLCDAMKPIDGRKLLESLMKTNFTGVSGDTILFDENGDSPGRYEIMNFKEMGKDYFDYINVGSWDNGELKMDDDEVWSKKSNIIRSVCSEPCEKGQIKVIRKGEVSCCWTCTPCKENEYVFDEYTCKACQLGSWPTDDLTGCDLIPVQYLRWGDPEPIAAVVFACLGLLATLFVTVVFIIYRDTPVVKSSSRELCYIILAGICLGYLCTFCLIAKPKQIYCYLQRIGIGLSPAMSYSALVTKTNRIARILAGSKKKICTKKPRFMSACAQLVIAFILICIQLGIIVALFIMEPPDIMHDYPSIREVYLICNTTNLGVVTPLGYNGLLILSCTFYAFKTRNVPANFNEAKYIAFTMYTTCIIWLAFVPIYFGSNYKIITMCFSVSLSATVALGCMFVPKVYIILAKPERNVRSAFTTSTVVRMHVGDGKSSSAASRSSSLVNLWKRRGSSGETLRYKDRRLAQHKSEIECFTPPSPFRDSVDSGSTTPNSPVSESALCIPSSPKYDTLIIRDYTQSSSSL

As a reminder, the microsomal CLint is the capacity of the preparation to metabolise the compound, expressed as a volume cleared per time. With `Cn1c(-c2ccc(=O)n(C)c2)nnc1N1CCC[C@@H]1c1cc(-c2cccc(Cl)c2)on1` [Example 31.7, 5-(5-{(R)-2-[5-(3-Chloro-phenyl)-isoxazol-3-yl]-pyrrolidin-1-yl}-4-methyl-4H-[1,2,4]triazol-3-yl)-1-methyl-1H-pyridin-2-one], the Kp in data set [1] was determined as 0.005. Also, the IC50 in data set [2] was determined as 47 nM. Besides, in data set [3], the microsomal CLint at 1 μmol/L is below 12 µL/min/mg. Moreover, the HERG ionworks in data set [4] amounted to 23 µM.
With `Cn1c(-c2ccnnc2)nnc1N1CCC[C@@H]1c1cc(-c2cccc(Cl)c2)on1` [Example 31.8, 4-(5-{(R)-2-[5-(3-Chloro-phenyl)-isoxazol-3-yl]-pyrrolidin-1-yl}-4-methyl-4H-[1,2,4]triazol-3-yl)-pyridazine], in data set [1], the Kp came to 0.11. Also, in data set [2], the IC50 was 25 nM. In data set [3], the intrinsic metabolic clearance (microsomal CLint) at 1 μmol/L is below 12 µL/min/mg. Moreover, the HERG ionworks in data set [4] came to 16 µM.
Turning to `Cn1c(-c2ccn(C)c(=O)c2)nnc1N1CCC[C@@H]1c1nnn(-c2cccc(Cl)c2)n1` [Example 31.11, 4-(5-{(R)-2-[2-(3-Chloro-phenyl)-2H-tetrazol-5-yl]-pyrrolidin-1-yl}-4-methyl-4H-[1,2,4]triazol-3-yl)-1-methyl-1H-pyridin-2-one], the Kp in data set [1] amounted to 0.035. Moreover, the IC50 in data set [2] was 39 nM. In addition, the microsomal CLint at 1 μmol/L in data set [3] is below 12 µL/min/mg. The HERG ionworks in data set [4] worked out at 20 µM.
For the molecule `Cc1cccc(-c2cc([C@H]3CCCN3c3nnc(-c4ccn(C)c(=O)c4)n3C)no2)c1` [Example 31.19, 1-Methyl-4-{4-methyl-5-[(R)-2-(5-m-tolylisoxazol-3-yl)pyrrolidin-1-yl]-4H-[1,2,4]triazol-3-yl}-1H-pyridin-2-one], the Kp in data set [1] was 0.01. Besides, the IC50 in data set [2] was 50 nM. Besides, the intrinsic metabolic clearance (microsomal CLint) at 1 μmol/L in data set [3] was below 12 µL/min/mg. Besides, the HERG ionworks in data set [4] worked out at 24 µM.

The values above are taken from patent US7678796B2, “MGluR5 modulators I” (AstraZeneca AB, priority 2006, dated 2010).
